Assays:
[1] = molecular target: T1, Androgen receptor (Rattus norvegicus, UniProt P15207); format: functional
T1 sequence (P15207 whole entry): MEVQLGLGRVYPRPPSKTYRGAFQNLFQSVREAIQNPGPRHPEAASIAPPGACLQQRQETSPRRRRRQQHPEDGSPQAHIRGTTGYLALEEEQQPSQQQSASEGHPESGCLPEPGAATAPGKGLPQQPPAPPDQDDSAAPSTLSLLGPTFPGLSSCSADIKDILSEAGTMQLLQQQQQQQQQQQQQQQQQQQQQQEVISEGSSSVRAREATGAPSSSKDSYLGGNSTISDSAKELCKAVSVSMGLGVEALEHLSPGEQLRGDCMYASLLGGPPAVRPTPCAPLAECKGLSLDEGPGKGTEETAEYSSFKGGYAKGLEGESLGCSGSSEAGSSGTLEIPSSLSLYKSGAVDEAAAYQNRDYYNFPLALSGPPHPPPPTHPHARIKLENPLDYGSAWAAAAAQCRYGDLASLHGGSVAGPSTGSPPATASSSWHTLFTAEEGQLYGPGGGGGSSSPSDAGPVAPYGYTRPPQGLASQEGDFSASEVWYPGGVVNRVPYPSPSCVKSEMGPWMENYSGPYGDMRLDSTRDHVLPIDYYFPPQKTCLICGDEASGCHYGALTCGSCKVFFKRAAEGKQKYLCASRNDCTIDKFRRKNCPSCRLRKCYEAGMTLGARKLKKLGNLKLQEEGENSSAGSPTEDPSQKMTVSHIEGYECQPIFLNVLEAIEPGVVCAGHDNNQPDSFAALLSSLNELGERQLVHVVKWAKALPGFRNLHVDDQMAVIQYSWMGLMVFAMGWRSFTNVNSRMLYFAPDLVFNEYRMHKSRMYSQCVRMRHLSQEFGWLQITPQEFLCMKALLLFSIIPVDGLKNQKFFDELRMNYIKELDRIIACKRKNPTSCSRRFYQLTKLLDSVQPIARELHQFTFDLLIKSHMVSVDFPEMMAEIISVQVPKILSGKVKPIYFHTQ

[2] = molecular target: Cannabinoid receptor 1 (Homo sapiens, UniProt P21554)
Chain of Cannabinoid receptor 1 (P21554 whole entry): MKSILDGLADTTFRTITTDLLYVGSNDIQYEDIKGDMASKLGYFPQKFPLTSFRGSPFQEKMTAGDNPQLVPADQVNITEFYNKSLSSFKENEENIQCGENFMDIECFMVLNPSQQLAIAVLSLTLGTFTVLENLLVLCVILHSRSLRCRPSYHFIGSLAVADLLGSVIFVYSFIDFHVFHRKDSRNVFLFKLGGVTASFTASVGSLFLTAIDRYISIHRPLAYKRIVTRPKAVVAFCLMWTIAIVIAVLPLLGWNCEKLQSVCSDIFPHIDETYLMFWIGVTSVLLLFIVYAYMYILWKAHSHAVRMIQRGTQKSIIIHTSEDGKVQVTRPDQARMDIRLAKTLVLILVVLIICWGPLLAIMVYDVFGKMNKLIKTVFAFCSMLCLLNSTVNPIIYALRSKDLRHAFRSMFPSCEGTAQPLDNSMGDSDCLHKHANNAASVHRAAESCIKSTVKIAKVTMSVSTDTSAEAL

[3] = molecular target: T2, Progesterone receptor (Homo sapiens, UniProt P06401)
T2 sequence (P06401 whole entry): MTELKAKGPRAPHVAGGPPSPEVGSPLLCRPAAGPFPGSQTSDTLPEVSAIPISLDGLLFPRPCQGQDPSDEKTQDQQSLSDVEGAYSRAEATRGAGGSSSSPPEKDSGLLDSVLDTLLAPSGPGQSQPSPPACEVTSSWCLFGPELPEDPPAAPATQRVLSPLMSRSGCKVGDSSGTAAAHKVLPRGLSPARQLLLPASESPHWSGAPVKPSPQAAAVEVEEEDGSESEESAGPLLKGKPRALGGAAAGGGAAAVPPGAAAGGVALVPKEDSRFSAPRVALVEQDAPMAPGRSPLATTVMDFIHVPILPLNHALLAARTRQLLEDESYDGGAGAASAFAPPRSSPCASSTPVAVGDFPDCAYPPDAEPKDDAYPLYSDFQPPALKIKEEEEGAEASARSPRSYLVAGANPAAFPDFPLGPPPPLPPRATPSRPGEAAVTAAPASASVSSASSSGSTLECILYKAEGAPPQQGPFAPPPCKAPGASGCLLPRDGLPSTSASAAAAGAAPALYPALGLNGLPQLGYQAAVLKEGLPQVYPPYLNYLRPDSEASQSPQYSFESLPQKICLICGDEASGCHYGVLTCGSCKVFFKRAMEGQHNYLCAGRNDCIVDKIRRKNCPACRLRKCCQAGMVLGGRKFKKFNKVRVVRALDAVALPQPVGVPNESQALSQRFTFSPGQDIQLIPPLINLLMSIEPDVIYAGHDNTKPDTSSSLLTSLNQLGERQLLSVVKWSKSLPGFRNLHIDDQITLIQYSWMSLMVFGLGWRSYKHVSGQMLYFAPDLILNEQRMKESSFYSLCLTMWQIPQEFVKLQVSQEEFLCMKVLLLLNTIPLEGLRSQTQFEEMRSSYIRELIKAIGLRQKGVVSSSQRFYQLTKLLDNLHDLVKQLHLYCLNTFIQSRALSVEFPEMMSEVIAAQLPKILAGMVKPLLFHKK

[4] = molecular target: Neurotensin receptor type 1 (Homo sapiens, UniProt P30989)
Chain of Neurotensin receptor type 1 (P30989 whole entry): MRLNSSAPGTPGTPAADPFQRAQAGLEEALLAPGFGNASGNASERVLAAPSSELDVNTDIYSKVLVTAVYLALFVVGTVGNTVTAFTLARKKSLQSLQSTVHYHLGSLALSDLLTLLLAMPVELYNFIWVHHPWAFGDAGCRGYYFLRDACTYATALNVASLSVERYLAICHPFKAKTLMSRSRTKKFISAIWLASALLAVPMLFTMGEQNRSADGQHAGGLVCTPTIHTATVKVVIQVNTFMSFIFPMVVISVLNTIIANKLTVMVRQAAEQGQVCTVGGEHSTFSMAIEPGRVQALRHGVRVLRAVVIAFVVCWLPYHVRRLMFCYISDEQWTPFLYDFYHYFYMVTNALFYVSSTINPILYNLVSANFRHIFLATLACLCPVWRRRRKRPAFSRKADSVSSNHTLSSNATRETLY

[5] = molecular target: T3, Alpha-2A adrenergic receptor (Homo sapiens, UniProt P08913)
T3 sequence (P08913 whole entry): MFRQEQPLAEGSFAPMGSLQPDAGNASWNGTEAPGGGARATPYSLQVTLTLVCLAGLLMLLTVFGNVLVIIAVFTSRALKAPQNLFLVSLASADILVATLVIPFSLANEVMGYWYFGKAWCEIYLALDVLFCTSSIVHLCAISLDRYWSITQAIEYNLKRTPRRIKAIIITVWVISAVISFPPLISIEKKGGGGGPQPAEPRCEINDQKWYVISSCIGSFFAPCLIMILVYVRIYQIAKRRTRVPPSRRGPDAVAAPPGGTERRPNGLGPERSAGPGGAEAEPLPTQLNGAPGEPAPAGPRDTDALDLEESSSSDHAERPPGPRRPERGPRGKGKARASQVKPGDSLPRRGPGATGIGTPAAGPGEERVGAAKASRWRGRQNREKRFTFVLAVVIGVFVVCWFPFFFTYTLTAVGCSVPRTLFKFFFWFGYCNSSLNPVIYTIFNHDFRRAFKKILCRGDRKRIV

[6] = molecular target: Melanocortin receptor 4 (Homo sapiens, UniProt P32245)
Chain of Melanocortin receptor 4 (P32245 whole entry): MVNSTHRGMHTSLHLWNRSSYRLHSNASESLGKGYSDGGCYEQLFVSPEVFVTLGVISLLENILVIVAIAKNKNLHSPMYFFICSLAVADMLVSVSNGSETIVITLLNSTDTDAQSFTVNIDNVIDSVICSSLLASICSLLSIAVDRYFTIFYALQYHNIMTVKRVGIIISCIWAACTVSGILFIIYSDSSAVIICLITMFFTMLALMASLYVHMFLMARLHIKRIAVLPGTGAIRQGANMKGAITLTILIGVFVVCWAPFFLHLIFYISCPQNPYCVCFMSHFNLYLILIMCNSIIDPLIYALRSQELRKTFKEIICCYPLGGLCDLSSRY

[7] = molecular target: T4, 5-hydroxytryptamine receptor 1A (Homo sapiens, UniProt P08908)
T4 sequence (P08908 whole entry): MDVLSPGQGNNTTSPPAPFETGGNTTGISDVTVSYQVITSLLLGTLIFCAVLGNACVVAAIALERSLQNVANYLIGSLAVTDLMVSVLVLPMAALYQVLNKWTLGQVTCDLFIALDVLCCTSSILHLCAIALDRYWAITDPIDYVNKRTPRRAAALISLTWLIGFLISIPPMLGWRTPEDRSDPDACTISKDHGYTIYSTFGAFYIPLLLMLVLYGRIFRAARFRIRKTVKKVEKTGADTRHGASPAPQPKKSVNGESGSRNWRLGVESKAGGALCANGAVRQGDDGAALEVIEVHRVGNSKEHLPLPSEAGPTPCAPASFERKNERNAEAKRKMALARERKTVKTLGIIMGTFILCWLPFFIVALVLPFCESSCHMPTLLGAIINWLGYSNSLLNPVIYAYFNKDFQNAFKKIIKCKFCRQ

[8] = molecular target: T1, Androgen receptor
[9] = molecular target: 5-hydroxytryptamine receptor 2A (Homo sapiens, UniProt P28223)
Chain of 5-hydroxytryptamine receptor 2A (P28223 whole entry): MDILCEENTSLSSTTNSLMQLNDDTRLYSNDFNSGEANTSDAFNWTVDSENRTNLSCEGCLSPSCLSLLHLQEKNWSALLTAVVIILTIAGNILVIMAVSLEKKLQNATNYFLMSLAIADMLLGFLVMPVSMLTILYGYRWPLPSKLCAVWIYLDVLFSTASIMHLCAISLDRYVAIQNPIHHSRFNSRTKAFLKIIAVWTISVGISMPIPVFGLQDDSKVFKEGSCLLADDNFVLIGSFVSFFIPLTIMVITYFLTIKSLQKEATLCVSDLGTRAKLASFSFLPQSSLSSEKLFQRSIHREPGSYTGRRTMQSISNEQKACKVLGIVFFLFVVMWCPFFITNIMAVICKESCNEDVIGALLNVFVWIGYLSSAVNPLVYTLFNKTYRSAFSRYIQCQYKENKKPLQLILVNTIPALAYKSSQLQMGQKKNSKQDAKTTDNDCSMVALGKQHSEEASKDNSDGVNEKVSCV
Also: assay procedure not described here.

Row | Structure (SMILES) | AC50 [1] [µM] | AC50 [2] [µM] | AC50 [6] [µM] | further results
1 | N#Cc1ccccc1-c1cc(-c2ccccn2)cn(-c2ccccc2)c1=O | > 30 |  |  | 
2 | COc1ccc(/C=C/C(=O)Nc2ccccc2C(=O)O)cc1OC | > 30 | > 30 |  | 
3 | C=C[C@@]1(C)CC(=O)[C@]2(O)[C@@]3(C)[C@@H](O)CCC(C)(C)[C@@H]3[C@H](OC(=O)CCN(C)C)[C@H](OC(C)=O)[C@@]2(C)O1 | > 30 |  |  | 
4 | NCCCC(O)(P(=O)(O)O)P(=O)(O)O [ALENDRONIC ACID] |  | > 10 | > 30 | AC50 [3]: > 30 µM; AC50 [4]: > 30 µM; AC50 [5]: > 10 µM; AC50 [7]: > 10 µM
5 | Nc1ccc(C(=O)O)c(O)c1 [AMINOSALICYLIC ACID] | > 30 |  |  | 
6 | CC(=O)OCC(=O)[C@@]1(O)CC[C@H]2[C@@H]3CCC4=CC(=O)CC[C@]4(C)C3=CC[C@@]21C [ANECORTAVE ACETATE] |  | > 10 | > 10 | 
7 | NS(=O)(=O)c1cc2c(cc1C(F)(F)F)NC(Cc1ccccc1)NS2(=O)=O (stereo not given) [BENDROFLUMETHIAZIDE] |  | > 10 | > 10 | AC50 [8]: > 10 µM
8 | O=C(CCCN1CCC(n2c(O)nc3ccccc32)CC1)c1ccc(F)cc1 [BENPERIDOL] | 7.1 |  |  | AC50 [9]: 0.0035 µM
9 | COc1cc(OC)c(C(=O)CCCN2CCCC2)c(OC)c1 [BUFLOMEDIL] | > 30 |  |  | 
10 | CCCCC1(CC)C(=O)NC(=O)NC1=O [BUTETHAL] | > 30 |  |  | 
11 | CCCCCCNC(=O)n1cc(F)c(=O)[nH]c1=O [CARMOFUR] |  | > 30 |  | 
12 | CCC(C)(Oc1ccc(C2(c3ccc(OC(C)(CC)C(=O)O)cc3)CCCCC2)cc1)C(=O)O (stereo not given) [CLINOFIBRATE] | > 30 |  |  | 
13 | N[C@H](Cc1cc(I)c(Oc2cc(I)c(O)c(I)c2)c(I)c1)C(=O)O [DEXTROTHYROXINE] |  | > 10 | > 30 | AC50 [3]: > 30 µM; AC50 [4]: 4.8 µM; AC50 [5]: > 10 µM; AC50 [9]: > 10 µM; AC50 [7]: > 10 µM
14 | C[C@@H]1C[C@H]2[C@@H]3C[C@H](F)C4=CC(=O)C=C[C@]4(C)[C@@]3(F)[C@@H](O)C[C@]2(C)[C@H]1C(=O)CO [DIFLUCORTOLONE] | 2.6 |  |  | 
15 | CCCCC[C@H](O)/C=C/[C@H]1[C@H](O)CC(=O)[C@@H]1C/C=C\CCCC(=O)O [DINOPROSTONE] | > 30 |  |  | 
16 | COC(=O)N[C@@H](C)CNc1nccc(-c2cn(C(C)C)nc2-c2cc(Cl)cc(NS(C)(=O)=O)c2F)n1 [ENCORAFENIB] | > 30 | > 30 | > 30 | 
17 | CCCN(CC)C(CC)C(=O)Nc1c(C)cccc1C (stereo not given) [ETIDOCAINE] |  |  |  | AC50 [7]: > 30 µM
18 | Clc1ccc(C(Cn2ccnc2)OCc2ccc(Sc3ccccc3)cc2)c(Cl)c1 (stereo not given) [FENTICONAZOLE] |  | 11 |  | 

Row | Structure (SMILES) | AC50 [1] [µM] | AC50 [2] [µM] | AC50 [6] [µM] | further results
19 | Nc1ccn([C@@H]2O[C@H](CO)[C@@H](O)C2(F)F)c(=O)n1 [GEMCITABINE] |  |  | > 30 | AC50 [7]: > 10 µM
20 | CCCCCCOC(=O)CCC(=O)CN [HEXAMINOLEVULINATE] | > 30 |  |  | 
21 | Nc1nc2c(c(=O)[nH]1)N(C=O)C(CNc1ccc(C(=O)N[C@@H](CCC(=O)O)C(=O)O)cc1)CN2 (stereo not given in full) [LEUCOVORIN] | > 30 |  |  | 
22 | CC(C)OC(=O)C(C(=O)OC(C)C)=C1SC=CS1 [MALOTILATE] | > 30 |  |  | 
23 | CC(=O)Nc1c(I)c(C(=O)N[C@H]2C(O)O[C@H](CO)[C@@H](O)[C@@H]2O)c(I)c(N(C)C(C)=O)c1I (stereo not given in full) [METRIZAMIDE] |  | > 10 | > 10 | 
24 | O=C1CN=C(c2ccccc2)c2cc(Cl)ccc2N1 [NORDAZEPAM] |  | > 10 | > 30 | AC50 [3]: > 30 µM; AC50 [4]: 14 µM; AC50 [5]: > 10 µM; AC50 [7]: > 10 µM
25 | CC(CCc1ccccc1)NC(C)C(O)c1ccc(O)cc1 (stereo not given) [NYLIDRIN] |  | > 10 | > 30 | AC50 [3]: > 30 µM; AC50 [4]: > 30 µM; AC50 [5]: 9.39 µM; AC50 [9]: 2.5 µM; AC50 [7]: 3.38 µM
26 | CC(=O)O[C@H]1C[C@@H]2CC[C@@H]3[C@H](CC[C@@]4(C)[C@H]3C[C@H]([N+]3(C)CCCCC3)[C@@H]4OC(C)=O)[C@@]2(C)C[C@@H]1[N+]1(C)CCCCC1 [PANCURONIUM] |  | > 10 | > 10 | 
27 | CC(=O)c1ccc2c(c1)N(CCCN1CCC(CCO)CC1)c1ccccc1S2 [PIPERACETAZINE] |  |  |  | AC50 [9]: 0.012 µM; AC50 [7]: 0.0421 µM
28 | CCN(CC)CC(=O)Oc1ccc(NC(C)=O)cc1 [PROPACETAMOL] | > 30 |  |  | 
29 | Cc1cc2nc3c(=O)[nH]c(=O)nc-3n(C[C@H](O)[C@H](O)[C@H](O)COP(=O)(O)O)c2cc1C [RIBOFLAVIN 5'-PHOSPHATE] | > 30 |  |  | 
30 | CC(NCCc1ccc(O)cc1)C(O)c1ccc(O)cc1 (stereo not given) [RITODRINE] |  | > 30 | > 10 | 
31 | CC(C)CC(N(C)C)C1(c2ccc(Cl)cc2)CCC1 (stereo not given) [SIBUTRAMINE] |  | > 10 | > 30 | AC50 [3]: > 30 µM; AC50 [4]: > 30 µM; AC50 [5]: > 10 µM; AC50 [7]: > 10 µM
32 | [H]/N=C(/N)N[C@H]1[C@H](O)[C@@H](O)[C@H](O[C@@H]2O[C@@H](C)[C@](O)(C=O)[C@H]2O[C@@H]2O[C@@H](CO)[C@H](O)[C@@H](O)[C@@H]2NC)[C@@H](N/C(N)=N\[H])[C@@H]1O [STREPTOMYCIN] |  | > 30 | > 30 | AC50 [3]: > 30 µM; AC50 [4]: > 30 µM; AC50 [5]: > 10 µM; AC50 [7]: > 10 µM
33 | Cc1cccc(N(C)C(=S)Oc2ccc3ccccc3c2)c1 [TOLNAFTATE] |  | > 10 | > 10 | 
34 | COc1ccc(C(CN(C)C)C2(O)CCCCC2)cc1 (stereo not given) [VENLAFAXINE] |  | 5.5 | > 30 | AC50 [3]: > 30 µM; AC50 [5]: > 10 µM; AC50 [7]: > 10 µM
35 | C=CC(N)CCC(=O)O (stereo not given) [VIGABATRIN] |  | > 10 | > 10 | 

— ChEMBL document CHEMBL5291721, “A preclinical secondary pharmacology resource illuminates target-adverse drug reaction associations of marketed drugs” (Nat Commun, 2023)
